Counter-ions that a name gives are not always drawn. Like-named read-outs stand apart in the source and are kept apart here.
Key:
Format in all cases: physicochemical
[1] = Solubility in water at 20° C. (azelastine and previously known salts)
[2] = Solubility and pH value of the aqueous solution on addition of excess acid
Description: Addition of excess amounts of acid increases the solubility of the salts. For example a 1-fold, preferably a 0.5-fold, in particular a 0.25-fold excess of acid may be used.
For example, the addition of acids yields the following solubility and following pH value of the aqueous solution: […]

[3] = Solubility in water at room temperature (salts of the invention)
[4] = aqueous solution, excess acid 0 mol
[5] = aqueous solution, excess acid 0.1 mol
[6] = aqueous solution, excess acid 0.25 mol

## CN1CCCC(n2nc(Cc3ccc(Cl)cc3)c3ccccc3c2=O)CC1 (stereo not drawn) [Azelastine, 4-(4-chlorobenzyl)-2-(perhydro-1methylazepine-4-yl)-1-(2H) phthalazinone]
[1]
  Solubility in water: 0.005%

## CN1CCCC(n2nc(Cc3ccc(Cl)cc3)c3ccccc3c2=O)CC1 (stereo not drawn) [acetate, azelastine acetate]
[2]; [4]
  pH value: 6.35
[2]; [5]
  pH value: 5.52
[2]; aqueous solution, excess acid 0.1 mol, read-out: Solubility
  Solubility: 30 mg/mL
[2]; [6]
  pH value: 5.1
[2]; aqueous solution, excess acid 0.25 mol, read-out: Solubility
  Solubility: 100 mg/mL
[2]; excess acid 0 mol
  Solubility: 2%
[3]
  Solubility in water: more than 10%

## CN1CCCC(n2nc(Cc3ccc(Cl)cc3)c3ccccc3c2=O)CC1 (stereo not drawn) [benzene sulphonate]
[1]
  Solubility in water: under 1%

## CN1CCCC(n2nc(Cc3ccc(Cl)cc3)c3ccccc3c2=O)CC1 (stereo not drawn) [embonate]
[1]
  Solubility in water: 0.0015%

## CN1CCCC(n2nc(Cc3ccc(Cl)cc3)c3ccccc3c2=O)CC1 (stereo not drawn) [fumarate]
[1]
  Solubility in water: under 1%

## CN1CCCC(n2nc(Cc3ccc(Cl)cc3)c3ccccc3c2=O)CC1 (stereo not drawn) [gluconate, azelastine gluconate]
[2]; aqueous solution, excess acid 0.5 mol
  pH value: 4.5
[2]; aqueous solution, excess acid 0.5 mol, read-out: Solubility
  Solubility: 100 mg/mL
[3]
  Solubility in water: up to 55%

## CN1CCCC(n2nc(Cc3ccc(Cl)cc3)c3ccccc3c2=O)CC1 (stereo not drawn) [hydrochloride]
[1]
  Solubility in water: 1%

## CN1CCCC(n2nc(Cc3ccc(Cl)cc3)c3ccccc3c2=O)CC1 (stereo not drawn) [lactate, azelastine lactate]
[2]; [4]
  pH value: 5.15
[2]; [5]
  pH value: 4.6
[2]; [6]
  pH value: 4.1
[2]; excess acid 0 mol
  Solubility: 3%
[2]; excess acid 0.1 mol
  Solubility: 5%
[2]; excess acid 0.25 mol
  Solubility: 10%
[3]
  Solubility in water: more than 10%

## CN1CCCC(n2nc(Cc3ccc(Cl)cc3)c3ccccc3c2=O)CC1 (stereo not drawn) [malate, azelastine malate]
[2]; [4]
  pH value: 3.85
[2]; excess acid 0 mol
  Solubility: 5%
[3]
  Solubility in water: 3%

## CN1CCCC(n2nc(Cc3ccc(Cl)cc3)c3ccccc3c2=O)CC1 (stereo not drawn) [maleate]
[1]
  Solubility in water: ca. 1%

## CN1CCCC(n2nc(Cc3ccc(Cl)cc3)c3ccccc3c2=O)CC1 (stereo not drawn) [methane sulphonate]
[1]
  Solubility in water: ca. 1%

## CN1CCCC(n2nc(Cc3ccc(Cl)cc3)c3ccccc3c2=O)CC1 (stereo not drawn) [phosphate]
[1]
  Solubility in water: ca. 1%

## CN1CCCC(n2nc(Cc3ccc(Cl)cc3)c3ccccc3c2=O)CC1 (stereo not drawn) [succinate]
[1]
  Solubility in water: ca. 1%

## CN1CCCC(n2nc(Cc3ccc(Cl)cc3)c3ccccc3c2=O)CC1 (stereo not drawn) [toluene sulphonate]
[1]
  Solubility in water: under 1%
